Assays:
Capan-1 (K-Ras G12V) = assay: CellTiter-Glo cell viability assay, 5-day treatment; format: cell-based; conditions: Homo sapiens, CAPAN-1, 120 h, 5-day treatment; read-out: Capan-1 Cell Viability assay data (K-Ras G12V, IC50)
In short: (§1)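 Five-day compound treatment of plated cells; luminescent read after ~30 min at RT. Percent-of-DMSO data fit to a four-parameter logistic model.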

NCI-H358 (K-Ras G12C) = assay: as above; format: cell-based; conditions: Homo sapiens, NCI-H358, 120 h, 5-day treatment; read-out: H358 Cell Viability assay data (K-Ras G12C, IC50)
In short: as §1

KRAS G13D = KRAS G13D (Homo sapiens, UniProt P01116+P62937, G13D); assay: Disruption of BRAF RBD interaction with Ras (FRET / MOA assay, with Cyclophilin A); format: biochemical; conditions: KRAS G13D; read-out: KRAS G13D FRET data IC50
In short: (§2)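 IC50 values reflect loss of K-Ras binding to BRAF RBD, read as a lowered TR-FRET ratio compared with DMSO, driven by compound-mediated K-Ras:Cyclophilin A complex formation. Compound top dose 30 μM final, 3-fold steps, 3 h incubation at 25 °C before a 1.5 h antibody step.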

KRAS G12V = KRAS G12V (Homo sapiens, UniProt P01116+P62937, G12V); assay: as above; format: biochemical; conditions: KRAS G12V; read-out: KRAS G12V FRET data IC50
In short: as §2

KRAS G13C = KRAS G13C (Homo sapiens, UniProt P01116+P62937, G13C); assay: as above; format: biochemical; conditions: read-out: KRAS G13C FRET data, IC50
In short: as §2

KRAS G12C = KRAS G12C (Homo sapiens, UniProt P01116+P62937, G12C); assay: as above; format: biochemical; conditions: read-out: KRAS G12C FRET data, IC50
In short: as §2

KRAS WT = KRAS WT (Homo sapiens, UniProt P01116+P62937); assay: as above; format: biochemical; conditions: KRAS WT; read-out: KRAS WT FRET data IC50
In short: as §2

NRAS G12C = NRAS G12C (Homo sapiens, UniProt P01111+P62937, G12C); assay: as above; format: biochemical; conditions: NRAS G12C; read-out: NRAS G12C FRET data IC50
KRAS G12S = KRAS G12S (Homo sapiens, UniProt P01116+P62937, G12S); assay: as above; format: biochemical; conditions: read-out: KRAS G12S FRET data, IC50
In short: as §2

KRAS G12D = KRAS G12D (Homo sapiens, UniProt P01116+P62937, G12D); assay: as above; format: biochemical; conditions: read-out: KRAS G12D FRET data, IC50
In short: as §2

KRAS Q61H = KRAS Q61H (Homo sapiens, UniProt P01116+P62937, Q61H); assay: as above; format: biochemical; conditions: KRAS Q61H; read-out: KRAS Q61H FRET data IC50
In short: (§3)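 IC50 reflects compound-driven Ras:Cyclophilin A ternary complex displacing BRAF RBD, read as lowered TR-FRET ratio relative to DMSO after Eu anti-His (10 nM) and APC anti-GST (50 nM) detection for 1.5 h. Prior incubation 3 h, 25° C, with 12.5 nM GMPPNP-loaded Ras, 50 nM BRAF RBD, 25 μM Cyclophilin A; top compound 30 μM.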

NRAS WT = NRAS WT (Homo sapiens, UniProt P01111+P62937); assay: as above; format: biochemical; conditions: NRAS WT; read-out: NRAS WT FRET data IC50
In short: as §3

NRAS Q61K = NRAS Q61K (Homo sapiens, UniProt P01111+P62937, Q61K); assay: as above; format: biochemical; conditions: NRAS Q61K; read-out: NRAS Q61K FRET data IC50
In short: as §3

NRAS Q61R = NRAS Q61R (Homo sapiens, UniProt P01111+P62937, Q61R); assay: as above; format: biochemical; conditions: NRAS Q61R; read-out: NRAS Q61R FRET data IC50
In short: as §3

KRAS G13C, sequence (P01116 1-169 isoform P01116-2 G13C): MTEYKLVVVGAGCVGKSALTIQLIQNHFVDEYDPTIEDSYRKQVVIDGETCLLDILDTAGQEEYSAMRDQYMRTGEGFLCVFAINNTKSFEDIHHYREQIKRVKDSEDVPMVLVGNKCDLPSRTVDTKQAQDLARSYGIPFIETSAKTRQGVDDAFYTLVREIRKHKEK
KRAS G13C, sequence (P62937 whole entry): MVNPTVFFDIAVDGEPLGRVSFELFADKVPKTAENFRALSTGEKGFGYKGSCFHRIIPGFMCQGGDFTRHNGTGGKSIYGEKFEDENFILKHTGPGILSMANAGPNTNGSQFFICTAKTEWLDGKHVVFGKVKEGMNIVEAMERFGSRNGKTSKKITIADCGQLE
KRAS G12S, sequence (P01116 1-169 isoform P01116-2 G12S limits assumed): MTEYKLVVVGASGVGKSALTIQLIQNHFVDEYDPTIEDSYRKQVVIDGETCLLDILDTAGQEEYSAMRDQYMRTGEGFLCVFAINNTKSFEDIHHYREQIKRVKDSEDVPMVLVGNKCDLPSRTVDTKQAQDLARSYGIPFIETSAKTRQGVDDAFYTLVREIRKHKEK
KRAS G12S, sequence (P62937 whole entry): as the sequence (P62937 whole entry) above
KRAS G12V, sequence (P01116 1-169 isoform P01116-2 G12V limits assumed): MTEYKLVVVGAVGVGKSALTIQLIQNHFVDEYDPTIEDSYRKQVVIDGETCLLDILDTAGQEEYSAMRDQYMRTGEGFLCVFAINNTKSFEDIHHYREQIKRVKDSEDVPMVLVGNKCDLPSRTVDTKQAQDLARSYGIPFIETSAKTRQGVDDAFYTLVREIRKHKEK
KRAS G12V, sequence (P62937 whole entry): as the sequence (P62937 whole entry) above
NRAS WT, sequence (P01111 whole entry): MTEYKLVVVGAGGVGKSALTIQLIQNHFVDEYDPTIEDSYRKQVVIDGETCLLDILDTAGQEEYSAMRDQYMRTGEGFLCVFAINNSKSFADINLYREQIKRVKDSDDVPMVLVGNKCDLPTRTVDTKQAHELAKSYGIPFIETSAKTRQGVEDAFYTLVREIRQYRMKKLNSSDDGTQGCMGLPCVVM
NRAS WT, sequence (P62937 whole entry): as the sequence (P62937 whole entry) above
KRAS WT, sequence (P01116 1-169 isoform P01116-2 limits assumed): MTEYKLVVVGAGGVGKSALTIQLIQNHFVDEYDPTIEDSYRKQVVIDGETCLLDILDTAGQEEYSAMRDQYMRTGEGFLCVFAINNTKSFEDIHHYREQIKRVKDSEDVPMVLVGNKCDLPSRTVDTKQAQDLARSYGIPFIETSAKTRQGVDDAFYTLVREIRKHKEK
KRAS WT, sequence (P62937 whole entry): as the sequence (P62937 whole entry) above
KRAS G12D, sequence (P01116 1-169 isoform P01116-2 G12D limits assumed): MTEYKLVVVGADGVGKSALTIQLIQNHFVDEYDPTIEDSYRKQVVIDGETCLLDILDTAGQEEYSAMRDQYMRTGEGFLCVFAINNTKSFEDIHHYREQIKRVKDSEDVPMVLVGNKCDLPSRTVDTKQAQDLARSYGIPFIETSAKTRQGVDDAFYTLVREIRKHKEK
KRAS G12D, sequence (P62937 whole entry): as the sequence (P62937 whole entry) above
NRAS Q61K, sequence (P01111 whole entry Q61K): as the sequence (P01111 whole entry) above, with Q61K counted along it
NRAS Q61K, sequence (P62937 whole entry): as the sequence (P62937 whole entry) above
KRAS G12C, sequence (P01116 1-169 isoform P01116-2 G12C): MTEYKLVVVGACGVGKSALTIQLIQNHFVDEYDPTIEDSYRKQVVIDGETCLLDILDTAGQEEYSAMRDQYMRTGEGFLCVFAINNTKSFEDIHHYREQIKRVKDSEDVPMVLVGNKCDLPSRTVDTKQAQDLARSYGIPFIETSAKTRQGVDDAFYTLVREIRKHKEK
KRAS G12C, sequence (P62937 whole entry): as the sequence (P62937 whole entry) above
NRAS G12C, sequence (P01111 whole entry G12C): as the sequence (P01111 whole entry) above, with G12C counted along it
NRAS G12C, sequence (P62937 whole entry): as the sequence (P62937 whole entry) above
KRAS Q61H, sequence (P01116 1-169 isoform P01116-2 Q61H limits assumed): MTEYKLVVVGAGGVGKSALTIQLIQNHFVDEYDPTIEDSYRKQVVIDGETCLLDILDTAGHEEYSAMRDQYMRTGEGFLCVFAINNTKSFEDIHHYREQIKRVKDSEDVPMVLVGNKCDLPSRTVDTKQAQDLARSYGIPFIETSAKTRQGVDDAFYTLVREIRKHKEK
KRAS Q61H, sequence (P62937 whole entry): as the sequence (P62937 whole entry) above
KRAS G13D, sequence (P01116 1-169 isoform P01116-2 G13D limits assumed): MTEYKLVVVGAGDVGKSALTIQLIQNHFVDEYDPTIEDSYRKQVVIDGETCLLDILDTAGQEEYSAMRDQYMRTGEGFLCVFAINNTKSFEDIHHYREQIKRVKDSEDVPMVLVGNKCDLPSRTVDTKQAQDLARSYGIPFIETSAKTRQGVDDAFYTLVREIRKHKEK
KRAS G13D, sequence (P62937 whole entry): as the sequence (P62937 whole entry) above
NRAS Q61R, sequence (P01111 whole entry Q61R): as the sequence (P01111 whole entry) above, with Q61R counted along it
NRAS Q61R, sequence (P62937 whole entry): as the sequence (P62937 whole entry) above

IC50 (NCI-H358 (K-Ras G12C))	IC50 (KRAS G13D)	IC50 (KRAS G12V)	IC50 (KRAS G13C)	IC50 (KRAS G12C)	IC50 (KRAS WT)	IC50 (NRAS G12C)	IC50 (KRAS G12S)	IC50 (KRAS G12D)	IC50 (KRAS Q61H)	IC50 (NRAS WT)	IC50 (NRAS Q61K)	IC50 (NRAS Q61R)	SMILES	IC50 (Capan-1 (K-Ras G12V))
10 to 100 nM	100 to 1000 nM	10 to 100 nM	100 to 1000 nM	10 to 100 nM	100 to 1000 nM	10 to 100 nM	100 to 1000 nM	100 to 1000 nM	10 to 100 nM	10 to 100 nM	10 to 100 nM	10 to 100 nM	CCn1c(-c2cccnc2[C@H](C)OC)c2c3cc(ccc31)-c1csc(n1)C[C@H](NC(=O)[C@H](C(C)C)N(C)C(=O)N1CC([C@H](C)OC)C1)C(=O)N1CCC[C@H](N1)C(=O)OCC(C)(C)C2 (atropisomer, axis not shown) [Example A279]	10 to 100 nM
10 to 100 nM	100 to 1000 nM	100 to 1000 nM	100 to 1000 nM	10 to 100 nM	100 to 1000 nM	10 to 100 nM	100 to 1000 nM	100 to 1000 nM	10 to 100 nM	100 to 1000 nM	10 to 100 nM	100 to 1000 nM	CCn1c(-c2cccnc2[C@H](C)OC)c2c3cc(ccc31)-c1csc(n1)C[C@H](NC(=O)[C@H](C(C)C)N(C)C(=O)N1CC(C(C)(C)OC)C1)C(=O)N1CCC[C@H](N1)C(=O)OCC(C)(C)C2 (atropisomer, axis not shown) [Example A614]	10 to 100 nM
10 to 100 nM	100 to 1000 nM	100 to 1000 nM	100 to 1000 nM	10 to 100 nM	100 to 1000 nM	10 to 100 nM	100 to 1000 nM	100 to 1000 nM	10 to 100 nM	100 to 1000 nM	10 to 100 nM	100 to 1000 nM	CCn1c(-c2cccnc2[C@H](C)OC)c2c3cc(ccc31)-c1csc(n1)C[C@H](NC(=O)[C@H](C(C)C)N(C)C(=O)N1C[C@H](N)[C@@H](F)C1)C(=O)N1CCC[C@H](N1)C(=O)OCC(C)(C)C2 (atropisomer, axis not shown) [Example A567]	100 to 1000 nM
10 to 100 nM	100 to 1000 nM	100 to 1000 nM	100 to 1000 nM	100 to 1000 nM	100 to 1000 nM	100 to 1000 nM	100 to 1000 nM	1000 to 10000 nM	100 to 1000 nM	100 to 1000 nM	100 to 1000 nM	100 to 1000 nM	CCn1c(-c2cccnc2[C@H](C)OC)c2c3cc(ccc31)-c1csc(n1)C[C@H](NC(=O)[C@H](C(C)C)N(C)C(=O)N1CCN(C)CC1)C(=O)N1CCC[C@H](N1)C(=O)OCC(C)(C)C2 [Example A570]	10 to 100 nM
100 to 1000 nM	100 to 1000 nM	100 to 1000 nM	100 to 1000 nM	10 to 100 nM	100 to 1000 nM	10 to 100 nM	100 to 1000 nM	100 to 1000 nM	10 to 100 nM	100 to 1000 nM	10 to 100 nM	100 to 1000 nM	CCn1c(-c2cccnc2[C@H](C)OC)c2c3cc(ccc31)-c1csc(n1)C[C@H](NC(=O)[C@H](C(C)C)N(C)C(=O)N1CC(C3CN(C)C3)C1)C(=O)N1CCC[C@H](N1)C(=O)OCC(C)(C)C2 (atropisomer, axis not shown) [Example A608]	10 to 100 nM
100 to 1000 nM	100 to 1000 nM	100 to 1000 nM	100 to 1000 nM	100 to 1000 nM	100 to 1000 nM	100 to 1000 nM	100 to 1000 nM	100 to 1000 nM	10 to 100 nM	100 to 1000 nM	100 to 1000 nM	100 to 1000 nM	CCn1c(-c2cccnc2[C@H](C)OC)c2c3cc(ccc31)-c1csc(n1)C[C@H](NC(=O)[C@H](C(C)C)N(C)C(=O)N1[C@H](C)CN(C)C[C@H]1C)C(=O)N1CCC[C@H](N1)C(=O)OCC(C)(C)C2 [Example A610]	100 to 1000 nM

The remaining lines, values behind:

SMILES	IC50 (NCI-H358 (K-Ras G12C))	IC50 (KRAS G13D)	IC50 (KRAS G12V)	IC50 (KRAS G13C)	IC50 (KRAS G12C)	IC50 (KRAS WT)	IC50 (NRAS G12C)	IC50 (KRAS G12S)	IC50 (KRAS G12D)	IC50 (KRAS Q61H)	IC50 (NRAS WT)	IC50 (NRAS Q61K)	IC50 (NRAS Q61R)	IC50 (Capan-1 (K-Ras G12V))
CCn1c(-c2cccnc2[C@H](C)OC)c2c3cc(ccc31)-c1csc(n1)C[C@H](NC(=O)[C@H]1CCCO1)C(=O)N1CCC[C@H](N1)C(=O)OCC(C)(C)C2 (atropisomer, axis not shown) [Example A315]	100 to 1000 nM	100 to 1000 nM	100 to 1000 nM	100 to 1000 nM	100 to 1000 nM	100 to 1000 nM	100 to 1000 nM	100 to 1000 nM	1000 to 10000 nM	100 to 1000 nM	100 to 1000 nM	100 to 1000 nM	1000 to 10000 nM	100 to 1000 nM
CCn1c(-c2cc(N3CCN(C)CC3)cnc2[C@H](C)OC)c2c3cc(ccc31)-c1csc(n1)C[C@H](NC(=O)[C@H](C(C)C)N(C)C(=O)[C@H]1CCNC1=O)C(=O)N1CCC[C@H](N1)C(=O)OCC(C)(C)C2 (single isomer, unassigned) [Example A449]	100 to 1000 nM	1000 to 10000 nM	1000 to 10000 nM	100 to 1000 nM	100 to 1000 nM	100 to 1000 nM	100 to 1000 nM	1000 to 10000 nM	1000 to 10000 nM	100 to 1000 nM	100 to 1000 nM	100 to 1000 nM	100 to 1000 nM	100 to 1000 nM
CCn1c(-c2cnccc2COC)c2c3cc(ccc31)-c1cc(O)cc(c1)C[C@H](NC(=O)[C@H](C(C)C)N1COCC1=O)C(=O)N1CCC[C@H](N1)C(=O)OCC(C)(C)C2 [Example A102]	1000 to 10000 nM	100 to 1000 nM	100 to 1000 nM	10 to 100 nM	100 to 1000 nM	100 to 1000 nM	100 to 1000 nM	100 to 1000 nM	100 to 1000 nM	10 to 100 nM	100 to 1000 nM	100 to 1000 nM	100 to 1000 nM	100 to 1000 nM
CCn1c(-c2cccnc2[C@H](C)OC)c2c3cc(ccc31)-c1csc(n1)C[C@H](NC(=O)[C@H]1C[C@@H]1C)C(=O)N1CCC[C@H](N1)C(=O)OCC(C)(C)C2 [Example A286, (1S,2S)—N-((6^3S,4S,Z)-1^1-ethyl-1^2-(2-((S)-1-methoxyethyl)pyridin-3-yl)-10,10-dimethyl-5,7-dioxo-6^1,6^2,6^3,6^4,6^5,6^6-hexahydro-1^1H-8-oxa-2(4,2)-thiazola-1(5,3)-indola-6(1,3)-pyridazinacycloundecaphane-4-yl)-2-methylcyclopropane-1-carboxamide]	10 to 100 nM	100 to 1000 nM	100 to 1000 nM	100 to 1000 nM	100 to 1000 nM	100 to 1000 nM	100 to 1000 nM	100 to 1000 nM	100 to 1000 nM	100 to 1000 nM	100 to 1000 nM	100 to 1000 nM	100 to 1000 nM	100 to 1000 nM
CCn1c(-c2cc(N3CCN(C)CC3)cnc2[C@H](C)OC)c2c3cc(ccc31)-c1csc(n1)C[C@H](NC(=O)[C@H](C(C)C)N(C)C(=O)N1CCC13CCN(C)CC3)C(=O)N1CCC[C@H](N1)C(=O)OCC(C)(C)C2 (atropisomer, axis not shown) [Example A483]	< 10 nM	100 to 1000 nM	100 to 1000 nM	100 to 1000 nM	10 to 100 nM	10 to 100 nM	10 to 100 nM	10 to 100 nM	10 to 100 nM	10 to 100 nM	10 to 100 nM	10 to 100 nM	10 to 100 nM	10 to 100 nM
